Test results from ChEMBL document CHEMBL1137046, “Potent and selective proline derived dipeptidyl peptidase IV inhibitors” (Bioorg Med Chem Lett, 2004).

Experiments:
Prolyl endopeptidase FAP = biological target: T1, Prolyl endopeptidase FAP (Homo sapiens, UniProt Q12884); experiment: Inhibition of Fibroblast activation protein alpha (seprase)
T1 sequence (Q12884 whole entry): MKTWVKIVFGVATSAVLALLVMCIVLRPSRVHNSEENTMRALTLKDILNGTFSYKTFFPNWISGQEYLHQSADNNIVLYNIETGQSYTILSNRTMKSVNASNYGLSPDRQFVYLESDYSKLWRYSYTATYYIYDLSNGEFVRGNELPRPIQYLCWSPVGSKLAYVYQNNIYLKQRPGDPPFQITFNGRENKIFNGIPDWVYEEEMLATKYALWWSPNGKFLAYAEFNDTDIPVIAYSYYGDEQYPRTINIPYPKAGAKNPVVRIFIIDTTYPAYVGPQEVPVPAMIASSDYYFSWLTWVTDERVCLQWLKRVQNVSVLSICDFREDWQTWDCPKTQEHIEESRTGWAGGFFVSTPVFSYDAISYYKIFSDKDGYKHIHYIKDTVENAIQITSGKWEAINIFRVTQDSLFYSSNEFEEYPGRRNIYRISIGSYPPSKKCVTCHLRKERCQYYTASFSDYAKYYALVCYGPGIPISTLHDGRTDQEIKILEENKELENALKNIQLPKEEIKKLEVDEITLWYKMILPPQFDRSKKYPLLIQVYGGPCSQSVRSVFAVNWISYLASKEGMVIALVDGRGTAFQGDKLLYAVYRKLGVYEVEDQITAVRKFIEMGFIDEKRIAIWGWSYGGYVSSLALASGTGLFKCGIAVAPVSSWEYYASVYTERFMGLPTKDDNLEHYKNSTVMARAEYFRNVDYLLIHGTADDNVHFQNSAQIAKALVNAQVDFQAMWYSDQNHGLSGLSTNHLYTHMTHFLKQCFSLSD

Dipeptidyl peptidase 9 = Dipeptidyl peptidase 9 (Homo sapiens, UniProt Q86TI2); experiment: Inhibition of Dipeptidylpeptidase IX
[1] = Plasma clearance in rats (1/2 mg/kg i.v./p.o.); assay type: ADME, organism-based; conditions: rat, 1 mg/kg i.v.
Xaa-Pro dipeptidase = biological target: T2, Xaa-Pro dipeptidase (Homo sapiens, UniProt P12955); experiment: Inhibition of prolidase
T2 sequence (P12955 whole entry): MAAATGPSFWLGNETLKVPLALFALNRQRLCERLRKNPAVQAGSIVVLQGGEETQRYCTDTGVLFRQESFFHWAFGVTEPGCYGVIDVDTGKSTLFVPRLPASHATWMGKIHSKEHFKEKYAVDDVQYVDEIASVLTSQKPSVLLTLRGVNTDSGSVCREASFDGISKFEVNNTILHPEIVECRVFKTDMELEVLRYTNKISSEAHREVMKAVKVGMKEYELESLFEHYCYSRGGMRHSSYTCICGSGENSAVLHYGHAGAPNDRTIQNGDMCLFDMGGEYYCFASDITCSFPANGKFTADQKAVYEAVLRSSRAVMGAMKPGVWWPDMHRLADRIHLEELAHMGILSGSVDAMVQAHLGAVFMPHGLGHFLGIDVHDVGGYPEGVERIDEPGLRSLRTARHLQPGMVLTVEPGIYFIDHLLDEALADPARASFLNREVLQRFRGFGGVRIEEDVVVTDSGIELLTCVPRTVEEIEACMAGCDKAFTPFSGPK

[2] = Inhibition of Aminopeptidase P
Dipeptidyl peptidase 8 = Dipeptidyl peptidase 8 (Homo sapiens, UniProt Q6V1X1); experiment: Inhibition of Dipeptidylpeptidase VIII
[3] = Half-life in rats ([…]/[…] mg/kg i.v./p.o.); assay type: ADME, organism-based; conditions: rat, in vivo, 2 mg/kg
Dipeptidyl peptidase 2 = Dipeptidyl peptidase 2 (Homo sapiens, UniProt Q9UHL4); experiment: Inhibition of Quiescent cell prolyl dipeptidase
Dipeptidyl peptidase 4 = Dipeptidyl peptidase 4 (Homo sapiens, UniProt P27487); experiment: Inhibition of human recombinant Dipeptidylpeptidase IV
[4] = Oral bioavailability in rat (dose 1 mg/kg i.v. and 2 mg/kg p.o.); assay type: ADME, organism-based; conditions: in vivo
Prolyl endopeptidase = biological target: T3, Prolyl endopeptidase (Homo sapiens, UniProt P48147); experiment: Inhibition of prolyl endopeptidase
T3 sequence (P48147 whole entry): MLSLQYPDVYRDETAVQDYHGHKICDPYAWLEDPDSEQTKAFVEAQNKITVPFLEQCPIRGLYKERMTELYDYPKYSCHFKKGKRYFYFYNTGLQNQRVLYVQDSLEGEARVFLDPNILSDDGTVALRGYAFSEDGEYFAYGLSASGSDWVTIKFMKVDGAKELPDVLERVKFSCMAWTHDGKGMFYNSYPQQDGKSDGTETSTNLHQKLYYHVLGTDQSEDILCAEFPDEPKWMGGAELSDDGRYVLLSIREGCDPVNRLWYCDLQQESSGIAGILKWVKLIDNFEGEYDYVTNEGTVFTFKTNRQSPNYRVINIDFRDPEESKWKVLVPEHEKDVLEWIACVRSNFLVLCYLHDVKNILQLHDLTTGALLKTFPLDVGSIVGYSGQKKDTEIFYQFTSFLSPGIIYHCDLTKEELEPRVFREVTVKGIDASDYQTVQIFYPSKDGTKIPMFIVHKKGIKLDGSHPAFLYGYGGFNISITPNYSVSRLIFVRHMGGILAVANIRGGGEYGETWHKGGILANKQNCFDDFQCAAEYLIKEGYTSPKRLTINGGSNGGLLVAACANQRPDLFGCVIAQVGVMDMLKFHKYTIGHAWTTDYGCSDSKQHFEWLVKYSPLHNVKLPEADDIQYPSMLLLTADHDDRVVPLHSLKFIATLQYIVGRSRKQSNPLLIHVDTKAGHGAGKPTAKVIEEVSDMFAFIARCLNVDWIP

[5] = biological target: Voltage-gated inwardly rectifying potassium channel KCNH2 (Homo sapiens, UniProt Q12809); experiment: Inhibition of human Potassium channel HERG
Sequence of Voltage-gated inwardly rectifying potassium channel KCNH2 (Q12809 whole entry): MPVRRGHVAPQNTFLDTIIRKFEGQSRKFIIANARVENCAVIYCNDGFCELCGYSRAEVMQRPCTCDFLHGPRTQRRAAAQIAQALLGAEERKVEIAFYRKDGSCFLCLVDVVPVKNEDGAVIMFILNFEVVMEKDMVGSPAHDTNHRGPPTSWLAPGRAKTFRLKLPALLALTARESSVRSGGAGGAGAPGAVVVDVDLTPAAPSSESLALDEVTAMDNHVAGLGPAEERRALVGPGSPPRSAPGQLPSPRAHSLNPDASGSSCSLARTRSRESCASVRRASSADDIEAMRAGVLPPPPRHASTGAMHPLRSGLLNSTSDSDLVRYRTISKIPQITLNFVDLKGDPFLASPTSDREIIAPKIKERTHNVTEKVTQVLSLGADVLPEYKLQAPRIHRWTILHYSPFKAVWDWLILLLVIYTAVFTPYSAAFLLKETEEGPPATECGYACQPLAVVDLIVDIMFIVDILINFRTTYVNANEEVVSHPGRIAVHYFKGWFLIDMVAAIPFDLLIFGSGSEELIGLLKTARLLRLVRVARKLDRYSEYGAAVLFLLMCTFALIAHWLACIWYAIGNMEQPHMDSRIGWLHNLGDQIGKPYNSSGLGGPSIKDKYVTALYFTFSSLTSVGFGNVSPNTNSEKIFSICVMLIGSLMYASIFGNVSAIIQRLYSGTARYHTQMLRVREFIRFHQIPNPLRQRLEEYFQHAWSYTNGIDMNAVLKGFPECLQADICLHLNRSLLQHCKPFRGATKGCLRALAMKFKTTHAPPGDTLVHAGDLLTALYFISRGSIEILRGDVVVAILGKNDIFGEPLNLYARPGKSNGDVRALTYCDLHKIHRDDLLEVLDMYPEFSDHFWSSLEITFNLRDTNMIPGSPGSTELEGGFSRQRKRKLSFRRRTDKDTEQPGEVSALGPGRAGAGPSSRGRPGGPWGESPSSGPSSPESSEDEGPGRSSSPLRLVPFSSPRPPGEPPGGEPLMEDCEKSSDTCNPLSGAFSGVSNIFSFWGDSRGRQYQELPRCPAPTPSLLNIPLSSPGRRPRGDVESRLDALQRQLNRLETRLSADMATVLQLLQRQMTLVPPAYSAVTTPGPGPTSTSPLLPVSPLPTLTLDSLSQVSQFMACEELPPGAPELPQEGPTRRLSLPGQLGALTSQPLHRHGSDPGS

Sequence of Dipeptidyl peptidase 9 (Q86TI2 whole entry): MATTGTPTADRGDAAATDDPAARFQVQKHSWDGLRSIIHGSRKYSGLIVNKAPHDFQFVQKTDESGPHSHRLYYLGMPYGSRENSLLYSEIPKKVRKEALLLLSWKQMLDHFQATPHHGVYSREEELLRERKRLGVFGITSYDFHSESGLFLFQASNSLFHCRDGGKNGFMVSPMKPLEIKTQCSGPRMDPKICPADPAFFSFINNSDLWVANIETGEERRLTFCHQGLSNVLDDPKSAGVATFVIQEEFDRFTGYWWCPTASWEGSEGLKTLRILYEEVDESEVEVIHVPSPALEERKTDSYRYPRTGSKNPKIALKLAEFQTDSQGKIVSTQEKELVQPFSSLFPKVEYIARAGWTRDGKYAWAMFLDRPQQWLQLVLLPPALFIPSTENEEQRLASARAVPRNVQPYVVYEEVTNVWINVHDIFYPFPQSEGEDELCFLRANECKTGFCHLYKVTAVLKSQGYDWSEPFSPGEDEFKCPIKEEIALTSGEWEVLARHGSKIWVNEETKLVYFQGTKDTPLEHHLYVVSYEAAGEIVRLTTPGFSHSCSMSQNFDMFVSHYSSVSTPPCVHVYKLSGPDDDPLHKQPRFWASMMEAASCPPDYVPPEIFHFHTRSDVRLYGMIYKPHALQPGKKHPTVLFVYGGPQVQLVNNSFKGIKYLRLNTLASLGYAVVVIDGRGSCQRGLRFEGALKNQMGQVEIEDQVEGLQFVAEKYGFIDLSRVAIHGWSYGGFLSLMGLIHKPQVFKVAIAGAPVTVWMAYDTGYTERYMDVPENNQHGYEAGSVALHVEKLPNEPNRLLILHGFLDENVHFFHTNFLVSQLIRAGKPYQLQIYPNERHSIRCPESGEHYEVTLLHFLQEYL
Sequence of Dipeptidyl peptidase 4 (P27487 whole entry): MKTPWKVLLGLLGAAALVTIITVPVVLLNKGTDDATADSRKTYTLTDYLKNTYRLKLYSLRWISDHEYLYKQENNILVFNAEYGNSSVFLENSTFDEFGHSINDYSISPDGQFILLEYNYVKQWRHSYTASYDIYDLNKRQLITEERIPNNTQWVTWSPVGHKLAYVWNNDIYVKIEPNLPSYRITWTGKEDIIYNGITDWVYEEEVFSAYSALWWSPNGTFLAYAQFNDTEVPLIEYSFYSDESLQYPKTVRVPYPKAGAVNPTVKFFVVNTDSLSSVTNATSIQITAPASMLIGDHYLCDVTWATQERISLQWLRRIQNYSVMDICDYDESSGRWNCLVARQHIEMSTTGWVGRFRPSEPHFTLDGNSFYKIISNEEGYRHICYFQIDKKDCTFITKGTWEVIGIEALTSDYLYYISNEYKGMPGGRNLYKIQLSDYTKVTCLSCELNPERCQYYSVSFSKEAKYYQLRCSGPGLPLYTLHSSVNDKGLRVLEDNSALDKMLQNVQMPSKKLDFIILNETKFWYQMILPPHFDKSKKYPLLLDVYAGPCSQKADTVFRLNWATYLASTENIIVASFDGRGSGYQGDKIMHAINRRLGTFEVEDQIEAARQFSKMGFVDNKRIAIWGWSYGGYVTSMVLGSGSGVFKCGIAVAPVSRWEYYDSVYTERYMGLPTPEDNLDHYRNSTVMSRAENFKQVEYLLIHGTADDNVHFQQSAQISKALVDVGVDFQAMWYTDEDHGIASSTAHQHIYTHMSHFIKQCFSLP
Sequence of Dipeptidyl peptidase 8 (Q6V1X1 whole entry): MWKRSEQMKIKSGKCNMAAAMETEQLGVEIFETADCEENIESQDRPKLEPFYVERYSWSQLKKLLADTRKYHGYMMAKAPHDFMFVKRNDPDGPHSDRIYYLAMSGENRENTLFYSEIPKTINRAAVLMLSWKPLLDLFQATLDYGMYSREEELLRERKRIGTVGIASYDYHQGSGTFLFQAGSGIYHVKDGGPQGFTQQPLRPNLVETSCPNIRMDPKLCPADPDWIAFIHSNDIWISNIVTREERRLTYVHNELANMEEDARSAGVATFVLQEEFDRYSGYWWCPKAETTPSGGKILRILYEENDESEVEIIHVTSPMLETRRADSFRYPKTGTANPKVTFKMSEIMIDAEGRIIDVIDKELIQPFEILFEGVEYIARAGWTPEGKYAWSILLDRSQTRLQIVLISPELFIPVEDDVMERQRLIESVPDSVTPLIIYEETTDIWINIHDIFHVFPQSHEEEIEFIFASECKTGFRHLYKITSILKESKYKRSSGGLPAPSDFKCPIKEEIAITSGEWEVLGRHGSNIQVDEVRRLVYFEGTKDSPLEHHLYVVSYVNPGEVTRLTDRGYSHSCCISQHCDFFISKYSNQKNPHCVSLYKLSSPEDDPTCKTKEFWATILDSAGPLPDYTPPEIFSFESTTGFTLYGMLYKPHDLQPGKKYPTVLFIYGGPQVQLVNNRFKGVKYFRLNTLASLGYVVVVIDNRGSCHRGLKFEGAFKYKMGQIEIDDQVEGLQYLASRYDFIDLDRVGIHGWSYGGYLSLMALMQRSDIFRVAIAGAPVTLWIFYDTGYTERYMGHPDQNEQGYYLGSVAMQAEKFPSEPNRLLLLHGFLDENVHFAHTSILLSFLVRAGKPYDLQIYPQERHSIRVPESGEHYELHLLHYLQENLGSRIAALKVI

## NC(CC(=O)N1CCC[C@H]1C(=O)NCCCCc1nn[nH]n1)Cc1ccccc1F.O=C(O)C(F)(F)F (stereo not given in full)
Prolyl endopeptidase FAP
  IC50: > 100 µM
Dipeptidyl peptidase 9
  IC50: > 100 µM
[1]
  clearance: 54 mL/min/kg
Xaa-Pro dipeptidase
  IC50: > 100 µM
[2]
  IC50: > 100 µM
Dipeptidyl peptidase 8
  IC50: > 100 µM
[3]
  half-life: 12 min
Dipeptidyl peptidase 2
  IC50: > 100 µM
Dipeptidyl peptidase 4
  IC50: 0.039 µM
[4]
  bioavailability: < 1%

## NC(CC(=O)N1CSC[C@H]1C(=O)NCc1ccc(CC(=O)O)cc1)Cc1ccccc1F.O=C(O)C(F)(F)F (stereo not given in full)
Prolyl endopeptidase FAP
  IC50: > 100 µM
[1]
  clearance: 25 mL/min/kg
Dipeptidyl peptidase 8
  IC50: > 50 µM
[3]
  half-life: 11.4 min
Dipeptidyl peptidase 2
  IC50: > 100 µM
[4]
  bioavailability: 10%

## COC(=O)Cc1ccc(CNC(=O)[C@@H]2CSCN2C(=O)CC(N)Cc2ccccc2F)cc1.O=C(O)C(F)(F)F (stereo not given in full)
Prolyl endopeptidase FAP
  IC50: > 100 µM
Dipeptidyl peptidase 9
  IC50: > 100 µM
Prolyl endopeptidase
  IC50: 100 µM
[1]
  clearance: 140 mL/min/kg
Xaa-Pro dipeptidase
  IC50: > 100 µM
[2]
  IC50: > 100 µM
Dipeptidyl peptidase 8
  IC50: > 100 µM
[3]
  half-life: 6 min
[5]
  IC50: 9.7 µM
Dipeptidyl peptidase 2
  IC50: 59 µM
Dipeptidyl peptidase 4
  IC50: 0.087 µM
[4]
  bioavailability: 11%

## CC(C)[C@@H](Oc1ccc(CNC(=O)[C@@H]2CCCN2C(=O)CC(N)Cc2cc(F)ccc2F)cc1)C(=O)O.O=C(O)C(F)(F)F (stereo not given in full)
Prolyl endopeptidase FAP
  IC50: 21 µM
Dipeptidyl peptidase 9
  IC50: 86 µM
Prolyl endopeptidase
  IC50: 39 µM
[1]
  clearance: 150 mL/min/kg
Xaa-Pro dipeptidase
  IC50: > 100 µM
[2]
  IC50: > 100 µM
Dipeptidyl peptidase 8
  IC50: > 100 µM
[3]
  half-life: 37.8 min
Dipeptidyl peptidase 2
  IC50: > 100 µM
Dipeptidyl peptidase 4
  IC50: 0.00048 µM

## NC(CC(=O)N1CCC[C@H]1C(=O)NCc1ccc(C(F)(F)F)cc1)Cc1ccccc1F.O=C(O)C(F)(F)F (stereo not given in full)
Prolyl endopeptidase FAP
  IC50: > 100 µM
Dipeptidyl peptidase 9
  IC50: > 100 µM
[1]
  clearance: 78 mL/min/kg
Xaa-Pro dipeptidase
  IC50: > 100 µM
[2]
  IC50: > 100 µM
Dipeptidyl peptidase 8
  IC50: 5.3 µM
[3]
  half-life: 46.8 min
Dipeptidyl peptidase 2
  IC50: 55 µM
Dipeptidyl peptidase 4
  IC50: 0.721 µM
[4]
  bioavailability: 38%

## CC(C)[C@@H](Oc1ccc(CNC(=O)[C@@H]2CCCN2C(=O)CC(N)Cc2c(F)c(F)c(F)c(F)c2F)cc1)C(=O)O.O=C(O)C(F)(F)F (stereo not given in full)
Prolyl endopeptidase FAP
  IC50: 48 µM
Dipeptidyl peptidase 9
  IC50: > 100 µM
Prolyl endopeptidase
  IC50: > 100 µM
[1]
  clearance: 47 mL/min/kg
Xaa-Pro dipeptidase
  IC50: > 100 µM
[2]
  IC50: > 100 µM
Dipeptidyl peptidase 8
  IC50: > 100 µM
[3]
  half-life: 21.6 min
Dipeptidyl peptidase 2
  IC50: > 100 µM
Dipeptidyl peptidase 4
  IC50: 0.0082 µM
[4]
  bioavailability: < 1%

## CC(C)[C@@H](Oc1ccc(CNC(=O)[C@@H]2CCCN2C(=O)C(N)C2CCCCC2)cc1)C(=O)O (stereo not given in full)
Prolyl endopeptidase FAP
  IC50: > 100 µM
Prolyl endopeptidase
  IC50: > 100 µM
[5]
  IC50: > 90 µM
Dipeptidyl peptidase 2
  IC50: > 100 µM

## NC(CC(=O)N1CCC[C@H]1C(=O)NCc1ccc(C(=O)O)cc1)Cc1ccc(F)c(F)c1.O=C(O)C(F)(F)F (stereo not given in full)
Prolyl endopeptidase FAP
  IC50: > 100 µM
Dipeptidyl peptidase 9
  IC50: > 100 µM
[1]
  clearance: 47 mL/min/kg
Dipeptidyl peptidase 8
  IC50: > 100 µM
[3]
  half-life: 21.6 min
Dipeptidyl peptidase 2
  IC50: > 100 µM
[4]
  bioavailability: < 1%
